# Assay results reported in publication PMC5748275, “Novel Aryl Substituted Pyrazoles as Small Molecule Inhibitors of Cytochrome P450 CYP121A1: Synthesis and Antimycobacterial Evaluation” (Journal of Medicinal Chemistry, 2017).
# Target: T1, CYP121A1 (Mycobacterium tuberculosis, UniProt P9WPP7)
# T1 construct: made in house
# Assay type: binding
# Conditions: heme Soret peak position, ligand-free to apparent saturation
# T1 sequence (P9WPP7 whole entry): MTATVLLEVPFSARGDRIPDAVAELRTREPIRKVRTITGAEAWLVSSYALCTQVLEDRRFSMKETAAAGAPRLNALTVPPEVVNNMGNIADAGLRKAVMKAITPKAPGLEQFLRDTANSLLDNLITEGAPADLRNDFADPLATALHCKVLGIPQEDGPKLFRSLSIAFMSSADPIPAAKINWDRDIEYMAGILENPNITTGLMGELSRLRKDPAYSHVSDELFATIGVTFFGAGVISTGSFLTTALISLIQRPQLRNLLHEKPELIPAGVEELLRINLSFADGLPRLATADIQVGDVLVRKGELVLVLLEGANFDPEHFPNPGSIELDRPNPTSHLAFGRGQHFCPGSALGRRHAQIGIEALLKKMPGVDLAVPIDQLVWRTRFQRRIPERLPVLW
row,Compound,Soret peak shift
1,"Ic1ccc(-c2nn(-c3ccccc3)cc2Cn2ccnc2)cc1 [7g, 4-((1H-Imidazole-1-yl)methyl)-3-(4-iodophenyl)-1-phenyl-1H-pyrazole]",416–422 nm
2,"Clc1ccc(-c2nn(-c3ccccc3)cc2Cn2ccnc2)cc1 [7c, 4-((1H-Imidazol-1-yl)methyl)-3-(4-chlorophenyl)-1-phenyl-1H-pyrazole]",416–422 nm
3,"Brc1ccc(-c2nn(-c3ccccc3)cc2Cn2cncn2)cc1 [8f, 1-((3-(4-Bromophenyl)-1-phenyl-1H-pyrazol-4-yl)methyl)-1H-1,2,4-triazole]",416–417.5 nm
4,"O=C(NCCn1ccnc1)c1cn(-c2ccccc2)nc1-c1ccc(F)cc1 [13b, N-(2-(1H-Imidazol-1-yl)ethyl)-3-(4-fluorophenyl)-1-phenyl-1H-pyrazole-4-carboxamide]",no binding
5,"Fc1ccc(-c2nn(-c3ccccc3)cc2Cn2ccnc2)cc1 [7b, 4-((1H-Imidazol-1-yl)methyl)-3-(4-fluorophenyl)-1-phenyl-1H-pyrazole]",416–423.5 nm
6,"Brc1ccc(-c2nn(-c3ccccc3)cc2Cn2ccnc2)cc1 [7f, 4-((1H-Imidazole-1-yl)methyl)-3-(4-bromophenyl)-1-phenyl-1H-pyrazole]",416–420 nm
7,"Cc1ccc(-c2nn(-c3ccccc3)cc2Cn2cncn2)cc1 [8d, 1((1-Phenyl-3-(p-tolyl)-1H-pyrazol-4-yl)methyl)-1H-1,2,4-triazole]",416–418 nm
8,"O=C(NCCn1ccnc1)c1cn(-c2ccccc2)nc1-c1ccc(Cl)cc1 [13c, N-(2-(1H-Imidazol-1-yl)ethyl)-3-(4-chlorophenyl)-1-phenyl-1H-pyrazole-4-carboxamide]",no binding
9,"Ic1ccc(-c2nn(-c3ccccc3)cc2Cn2cncn2)cc1 [8g, 1-((3-(4-Iodophenyl)-1-phenyl-1H-pyrazol-4-yl)methyl)-1H-1,2,4-triazole]",no binding
10,"Clc1ccc(-c2nn(-c3ccccc3)cc2Cn2cncn2)cc1 [8c, 1-((3-(4-Chlorophenyl)-1-phenyl-1H-pyrazole-4-yl)methyl)-1H-1,2,4-triazole]",416–421 nm
11,"Cc1ccc(-c2nn(-c3ccccc3)cc2Cn2ccnc2)cc1 [7d, 4-((1H-Imidazol-1-yl)methyl)-1-phenyl-3-(p-tolyl)-1H-pyrazole]",416–421.5 nm
12,"c1ccc(-c2nn(-c3ccccc3)cc2Cn2ccnc2)cc1 [7a, (1,3-Diphenyl)-4-((1,3-imidazol-1-yl)methyl)-1H-pyrazole]",416–423.5 nm
13,N#Cc1ccc(-c2nn(-c3ccccc3)cc2Cn2cncn2)cc1 [8h],no binding
14,"c1ccc(-c2nn(-c3ccccc3)cc2Cn2cncn2)cc1 [8a, 1-((1,3-Diphenyl-1H-pyrazol-4-yl)methyl)-1H-[1,2,4]triazole]",416–422 nm
15,"N#Cc1ccc(-c2nn(-c3ccccc3)cc2Cn2ccnc2)cc1 [7h, 4-(4-((1H-Imidazol-1-yl)methyl)-1-phenyl-1H-pyrazol-3-yl)benzonitrile]",416–418 nm
16,"Fc1ccc(-c2nn(-c3ccccc3)cc2Cn2cncn2)cc1 [8b, 1-((3-(4-Fluorophenyl)-1-phenyl-1H-pyrazole-4-yl)methyl)-1H-1,2,4-triazole]",416–423 nm
17,"COc1ccc(-c2nn(-c3ccccc3)cc2Cn2ccnc2)cc1 [7e, 4-((1H-Imidazol-1-yl)methyl)-3-(4-methoxyphenyl)-1-phenyl-1H-pyrazole]",416–421 nm
18,"COc1ccc(-c2nn(-c3ccccc3)cc2Cn2cncn2)cc1 [8e, 1-((3-(4-Methoxyphenyl)-1-phenyl-1H-pyrazol-4-yl)methyl)-1H-1,2,4-triazole]",416–420 nm
